In patent US20140302217A1, “PRESERVATIVE COMBINATIONS COMPRISING PROPIONIC ACID AND VANILLIN AND/OR CINNAMIC ACID” (Purac Biochem B.V., priority 2011, published 2014):

Columns and labels:
mould cocktail = assay: combinations of components in model drink in 96-well microtiter plates, visual observation of growth; assay type: cell-based, Fusarium oxisporum, Byssoaclamys fulva, Penicillium sp; conditions: 3 weeks at 20°
Protocol: The tests where two components or more components were combined in model drink were carried out in sterile 96-well microtiter plates. Sterile matrix was prepared according recipe of Nestle with increasing quantities of two different inhibitors. The concentrations of each inhibitor were presented in 8 equal concentration steps that ranged from 0 to 1-2 times the (estimated) MIC value of particular mould for a particular inhibitor resulting in 64 different media. 200 μl of each medium was transferred to a panel of a sterile 96-well microtiter plate.
Completed well plates were stored at 4° C. until further use. The data was obtained via optical observation of growth.
Spores of all moulds were collected via the method as described in 2.3. Spores were counted using the Burker-turk method and adjusted to a log 5 per ml in PFZ and mixed to a homologue suspension. This suspension was diluted 100 times for inoculation.
In order to have an idea of the efficacy of the combination of propionate, vanillin and potassium cinnamate in model drink, some experiments were done in microwells plates. These experiments were visually observed after 3 weeks of incubation at 20° and used as pre-application experiments in order to create an expectation for the efficacy of the components in long term application experiments. The data that is shown in table 5 below is divided in “+” and “−”. The “+” means visible growth, while the “−” means no visible growth of the mould cocktail at the specific concentrations. […] However, combined with an amount of nearly 400 ppm of propionate and 75 ppm of vanillin the model drink is stable for at least 3 weeks.

Penicillium sp (Pen381) = assay: MEA agar plate colony growth test; assay type: cell-based; conditions: single component, agar plates
Protocol: (§1) Each experiment existed of 10 MEA agar plates containing a successive amount of component, starting from 0 ppm to the maximal used concentration.
(§2) MEA was prepared by dissolving 20 g of Malt extract (Difco, England), 1 g of Peptone (Becton Dickinson, USA), 20 g of glucose and 20 g of bacteriological agar (No. 1. Oxoid, England) in 11 of dematerialized water. The pH was adjusted to 3.2 by adding 5.9 ml of Hcl 1M after heat sterilization.
(§3) A stock solution was made for each component. The stock was 25 times the maximal used concentration. A successive amount from 0 to 900 μl of these stocks, making the concentration range, was pipetted in 10, 50 ml capped test tubes.
(§4) Subsequently, 25 ml of warm (80-90° C.) MEA agar was pipetted, using a sterile 25 ml pipette, in the tubes and the tubes were vortexed slowly but vigorously. Next, the component containing agar was poured out in 9 cm Petri dishes. Besides single components against single moulds, combinations of propionate with potassium cinnamate or vanillin were tested on solid agar. To prepare these binary combinations 6.25 ml of a 4 times concentrated component was mixed with the other components that was also 4 times concentrated. The mix of components were mixed with 12.5 ml double concentrated MEA to reach the preferred concentrations.
(§5) After the plates were dried a dot was spotted at the backside and in the centre of the petridish 0.5 μl of the mould spore solution was spotted on the agar targeting the dot in the centre. When the drop was dried in, the plates were placed bottom down in the incubator at 25° C.
(§6) The growth of colonies was determined by measurement of the colony diameter at different points in time. The growth curves were converted to dose response curves as described in 2.6.
(§7) The data from the agar plate experiments were obtained by measuring the colony size changes. The change in time was interpreted as growth speed and growth curves were plotted.
(§8) To convert the growth curves to dose response curves the μ Max (maximum growth rate) was calculated per concentration of antimicrobial component. The curves were fitted to a Logistic Dose Response (LDR) Intercept Form (Equation 8013) using Table curve 2D version 5.1

[1] = test system: Byssoaclamys fulva (Bysful2); assay: MEA agar plate colony growth test; assay type: cell-based; conditions: single component, agar plates
Protocol: as §1, §2, §3, §4, §5, §6, §7, §8

pure cultures of moulds = assay: single components and binary combinations on MEA agar plates against pure cultures of moulds (colony diameter); assay type: cell-based, Fusarium oxisporum, Byssoaclamys fulva, Penicillium sp
Protocol: as §1, §2, §3, §4, §5, §6, §7
To convert the growth curves to dose response curves the μ Max (maximum growth rate) was calculated per concentration of antimicrobial component. […]

SMILES: O=C([O-])C=Cc1ccccc1.[K+] [potassium cinnamate]
- inhibition of the growth of the mould cocktail (mould cocktail; 350 ppm alone): not sufficient
- visible growth of mould cocktail (mould cocktail; Kcinnamate 0.0050% (w/v)): +
- visible growth of mould cocktail (mould cocktail; Kcinnamate 0.0100% (w/v)): +
- visible growth of mould cocktail (mould cocktail; Kcinnamate 0.0150% (w/v)): +
- visible growth of mould cocktail (mould cocktail; Kcinnamate 0.0200% (w/v)): +
- visible growth of mould cocktail (mould cocktail; Kcinnamate 0.0250% (w/v)): +
- visible growth of mould cocktail (mould cocktail; Kcinnamate 0.0300% (w/v)): +
- visible growth of mould cocktail (mould cocktail; Kcinnamate 0.0350% (w/v)): +
- growth of Penicillium (Penicillium sp (Pen381); after 100 ppm): dramatic increase
- inhibition of Penicillium (Penicillium sp (Pen381); levels up to 200 ppm): not inhibited

SMILES: CCC(=O)O [propionate, Propionic acid]
- concentration at which Penicillium is inhibited (Penicillium sp (Pen381)): approximately 0.15%
- concentration at which Byssoclamys is inhibited [1]: approximately 0.15%
- sensitivity of all moulds to the component (pure cultures of moulds): sensitive

SMILES: COc1cc(C=O)ccc1O [vanillin, 4-Hydroxy-3-methoxybenzaldehyde]
- sensitivity of all moulds to the component (pure cultures of moulds): sensitive
- amount needed for an overall inhibition of all moulds (pure cultures of moulds; single component, also printed as 900 ppm): approximately 0.09%
